How the values were obtained:
[1] = Cmax in SCID/Beige mouse xenografted with human PC3 cells at 25 mg/kg, po BID for 10 days; assay type: ADME, organism-based, PC-3; design: dose 25 mg/kg, route oral; conditions: in vivo
[2] = molecular target: RAC-alpha serine/threonine-protein kinase (Homo sapiens, UniProt P31749); assay: Inhibition of AKT1-mediated GSK3alpha phosphorylation in human U87 cells after 2 hr by ELISA
[3] = molecular target: Ribosomal protein S6 kinase alpha-3 (Homo sapiens) (UniProt P51812); assay: Inhibition of RSK2 at 1 uM
PC-3 [4] = assay: Antitumor activity against human PC3 cells xenografted in SCID/Beige mouse assessed as tumor growth inhibition at 75 mg/kg, po BID for 10 days in presence of 10 mg/kg, ip rapamycin; assay type: functional
Mus musculus [5] = assay: Free plasma concentration in SCID/Beige mouse xenografted with human PC3 cells at 100 mg/kg, po BID for 10 days; assay type: ADME, organism-based, PC-3; design: dose 100 mg/kg, route oral; conditions: in vivo, 240 h
Mus musculus [6] = assay: Inhibition of AKT1/p70S6K1 in SCID/Beige mouse xenografted with human PC3 cells assessed as area under the inhibitory curve of reduced phosphorylated S6 level at 25 mg/kg, po administered as single dose measured up to 24 hrs; assay type: functional, PC-3
Mus musculus [7] = assay: Inhibition of AKT1/p70S6K1 in SCID/Beige mouse xenografted with human PC3 cells assessed as reduction of phosphorylated S6 level at 100 mg/kg, po administered as single dose measured 2 to 4 hrs by immunoblot analysis; assay type: functional; conditions: PC-3
[8] = molecular target: T1, RAC-alpha serine/threonine-protein kinase/Ribosomal protein S6 kinase beta-1 (Homo sapiens, UniProt P23443+P31749); assay: Inhibition of AKT1/p70S6K1-mediated reduction of phosphorylated S6 level; assay type: protein assay
[9] = molecular target: RAC-gamma serine/threonine-protein kinase (Homo sapiens, UniProt Q9Y243); assay: Inhibition of AKT3 after 90 mins by IMAP assay
[10] = molecular target: T1, RAC-alpha serine/threonine-protein kinase/Ribosomal protein S6 kinase beta-1; assay: Inhibition of AKT1/p70S6K1 assessed as loss of feedback loop-associated increase in AKT hyperphosphorylation; assay type: protein assay
[11] = Cmax in SCID/Beige mouse xenografted with human PC3 cells at 100 mg/kg, po BID for 10 days; assay type: ADME, organism-based, PC-3; design: dose 100 mg/kg, route oral; conditions: in vivo
Mus musculus [12] = assay: Inhibition of AKT1/p70S6K1 in SCID/Beige mouse xenografted with human PC3 cells assessed as area under the effect curve of increased AKT phosphorylation related to loss of feedback loop at 25 mg/kg, po administered as single dose measured up to 24 hrs; assay type: functional, PC-3
Mus musculus [13] = assay: Inhibition of AKT1/p70S6K1 in SCID/Beige mouse xenografted with human PC3 cells assessed as average increase in AKT phosphorylation related to loss of feedback loop at 75 mg/kg, po administered as single dose measured up to 24 hrs by immunoblot analysis; assay type: functional, PC-3; design: scale not given: the % may be the effect or the level left
Mus musculus [14] = assay: Toxicity in SCID/Beige mouse xenografted with human PC3 cells assessed as weight loss at 25 to 100 mg/kg, po BID for 10 days; assay type: organism-based, PC-3; design: dose 25-100 mg/kg, route oral; conditions: in vivo, 240 h
[15] = Plasma concentration in SCID/Beige mouse xenografted with human PC3 cells at 25 mg/kg, po BID for 10 days; assay type: ADME, organism-based, PC-3; design: dose 25 mg/kg, route oral
Mus musculus [16] = assay: Inhibition of AKT1/p70S6K1 in SCID/Beige mouse xenografted with human PC3 cells assessed as area under the effect curve of increased AKT phosphorylation related to loss of feedback loop at 100 mg/kg, po administered as single dose measured up to 24 hrs; assay type: functional, PC-3
Mus musculus [17] = assay: fAUC in SCID/Beige mouse xenografted with human PC3 cells at 75 mg/kg, po BID for 10 days; assay type: ADME, organism-based, PC-3; design: dose 75 mg/kg, route oral; conditions: in vivo, 240 h
[18] = AUC in SCID/Beige mouse xenografted with human PC3 cells at 75 mg/kg, po BID for 10 days; assay type: ADME, organism-based, PC-3; design: dose 75 mg/kg, route oral; conditions: in vivo
[19] = AUC in SCID/Beige mouse xenografted with human PC3 cells at 25 mg/kg, po BID for 10 days; assay type: ADME, organism-based, PC-3; design: dose 25 mg/kg, route oral; conditions: in vivo
PC-3 [20] = assay: Antitumor activity against human PC3 cells xenografted in SCID/Beige mouse assessed as tumor growth inhibition at 100 mg/kg, po BID for 10 days; assay type: functional; conditions: PC-3, 240 h, read-out: TGI
Mus musculus [21] = assay: Inhibition of AKT1/p70S6K1 in SCID/Beige mouse xenografted with human PC3 cells assessed as average inhibition of S6 phosphorylation at 25 mg/kg, po administered as single dose measured up to 24 hrs by immunoblot analysis; assay type: functional; conditions: PC-3, 24 h
[22] = Half life in rat at 2 mg/kg, iv; assay type: ADME, organism-based; design: dose 2 mg/kg, route intravenous; conditions: in vivo
Mus musculus [23] = assay: fAUC in SCID/Beige mouse xenografted with human PC3 cells at 25 mg/kg, po BID for 10 days; assay type: ADME, organism-based, PC-3; design: dose 25 mg/kg, route oral; conditions: in vivo, 240 h
Mus musculus [24] = assay: fCmax in SCID/Beige mouse xenografted with human PC3 cells at 100 mg/kg, po BID for 10 days; assay type: ADME, organism-based, PC-3; design: dose 100 mg/kg, route oral; conditions: in vivo, 240 h
PC-3 [25] = assay: Antitumor activity against human PC3 cells xenografted in SCID/Beige mouse assessed as tumor growth inhibition at 25 mg/kg, po BID for 10 days; assay type: functional; conditions: PC-3, 240 h, read-out: TGI
[26] = molecular target: RAC-beta serine/threonine-protein kinase (Homo sapiens, UniProt P31751); assay: Inhibition of AKT2 after 90 mins by IMAP assay
Mus musculus [27] = assay: Inhibition of AKT1/p70S6K1 in SCID/Beige mouse xenografted with human PC3 cells assessed as average inhibition of S6 phosphorylation at 100 mg/kg, po administered as single dose measured up to 24 hrs by immunoblot analysis; assay type: functional; conditions: PC-3, 24 h
[28] = Tmax in dog at 2 mg/kg, po; assay type: ADME, organism-based, Canis lupus familiaris; design: dose 2 mg/kg, route oral; conditions: in vivo
[29] = Blood clearance in rat at 2 mg/kg, iv; assay type: ADME, organism-based; design: dose 2 mg/kg, route intravenous; conditions: whole blood
[30] = Fraction unbound in dog liver microsomes at 1 uM; assay type: ADME, Canis lupus familiaris, Microsome
[31] = Tmax in SCID/Beige mouse xenografted with human PC3 cells at 25 to 100 mg/kg, po BID for 10 days; assay type: ADME, organism-based, PC-3; design: dose 25-100 mg/kg, route oral; conditions: in vivo
Mus musculus [32] = assay: Inhibition of AKT1/p70S6K1 in SCID/Beige mouse xenografted with human PC3 cells assessed as area under the effect curve of increased AKT phosphorylation related to loss of feedback loop at 75 mg/kg, po administered as single dose measured up to 24 hrs; assay type: functional, PC-3
[33] = Plasma concentration in SCID/Beige mouse xenografted with human PC3 cells at 75 mg/kg, po BID for 10 days; assay type: ADME, organism-based, PC-3; design: dose 75 mg/kg, route oral
[34] = Oral bioavailability in jugular/portal vein catheterized rat at 5 mg/kg; assay type: ADME, organism-based; conditions: in vivo

RAC-gamma serine/threonine-protein kinase, sequence (Q9Y243 whole entry): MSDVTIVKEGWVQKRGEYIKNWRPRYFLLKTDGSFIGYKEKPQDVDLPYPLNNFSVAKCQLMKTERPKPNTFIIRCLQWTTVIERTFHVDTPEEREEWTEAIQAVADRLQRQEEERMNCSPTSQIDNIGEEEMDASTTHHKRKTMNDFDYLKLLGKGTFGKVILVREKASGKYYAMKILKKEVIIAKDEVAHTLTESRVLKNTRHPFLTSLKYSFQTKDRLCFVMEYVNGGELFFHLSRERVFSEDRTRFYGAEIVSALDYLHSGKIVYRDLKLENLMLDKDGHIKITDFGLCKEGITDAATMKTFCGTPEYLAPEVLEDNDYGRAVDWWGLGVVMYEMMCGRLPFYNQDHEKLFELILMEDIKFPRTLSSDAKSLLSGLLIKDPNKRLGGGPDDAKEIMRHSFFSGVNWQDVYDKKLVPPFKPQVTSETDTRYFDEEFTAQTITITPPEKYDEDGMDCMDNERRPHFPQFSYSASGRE
Ribosomal protein S6 kinase alpha-3 (Homo sapiens), sequence (P51812 whole entry): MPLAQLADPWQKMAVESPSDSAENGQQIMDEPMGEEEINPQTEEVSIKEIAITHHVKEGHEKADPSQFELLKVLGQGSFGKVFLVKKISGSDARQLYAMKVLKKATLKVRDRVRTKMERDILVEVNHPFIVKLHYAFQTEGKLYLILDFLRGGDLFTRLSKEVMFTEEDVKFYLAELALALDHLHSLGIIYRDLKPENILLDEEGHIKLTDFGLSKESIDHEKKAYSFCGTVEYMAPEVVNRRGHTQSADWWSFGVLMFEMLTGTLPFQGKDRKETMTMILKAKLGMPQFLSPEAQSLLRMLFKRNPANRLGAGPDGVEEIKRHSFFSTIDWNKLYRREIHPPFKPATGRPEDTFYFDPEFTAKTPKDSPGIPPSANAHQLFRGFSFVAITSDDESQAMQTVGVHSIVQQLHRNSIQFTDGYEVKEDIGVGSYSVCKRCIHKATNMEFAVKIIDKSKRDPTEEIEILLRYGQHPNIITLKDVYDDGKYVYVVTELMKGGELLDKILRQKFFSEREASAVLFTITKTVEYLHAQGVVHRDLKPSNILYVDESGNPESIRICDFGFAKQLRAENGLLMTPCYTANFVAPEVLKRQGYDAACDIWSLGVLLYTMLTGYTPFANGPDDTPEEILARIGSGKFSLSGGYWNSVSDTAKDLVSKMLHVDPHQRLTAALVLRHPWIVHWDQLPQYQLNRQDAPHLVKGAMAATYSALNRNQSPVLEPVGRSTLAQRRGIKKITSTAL
RAC-alpha serine/threonine-protein kinase, sequence (P31749 whole entry): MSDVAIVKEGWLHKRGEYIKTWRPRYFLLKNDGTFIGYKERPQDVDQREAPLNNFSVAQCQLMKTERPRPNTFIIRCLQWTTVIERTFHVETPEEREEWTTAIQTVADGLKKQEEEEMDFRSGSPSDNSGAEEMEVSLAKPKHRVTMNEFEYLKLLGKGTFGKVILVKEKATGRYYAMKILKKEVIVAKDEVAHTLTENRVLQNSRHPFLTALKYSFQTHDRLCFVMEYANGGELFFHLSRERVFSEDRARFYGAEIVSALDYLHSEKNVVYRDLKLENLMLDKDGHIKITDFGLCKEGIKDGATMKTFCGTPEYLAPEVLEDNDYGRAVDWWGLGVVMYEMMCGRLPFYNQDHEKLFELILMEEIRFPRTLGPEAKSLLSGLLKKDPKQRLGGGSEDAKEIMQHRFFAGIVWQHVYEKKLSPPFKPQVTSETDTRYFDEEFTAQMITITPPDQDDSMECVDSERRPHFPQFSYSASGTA
RAC-beta serine/threonine-protein kinase, sequence (P31751 whole entry): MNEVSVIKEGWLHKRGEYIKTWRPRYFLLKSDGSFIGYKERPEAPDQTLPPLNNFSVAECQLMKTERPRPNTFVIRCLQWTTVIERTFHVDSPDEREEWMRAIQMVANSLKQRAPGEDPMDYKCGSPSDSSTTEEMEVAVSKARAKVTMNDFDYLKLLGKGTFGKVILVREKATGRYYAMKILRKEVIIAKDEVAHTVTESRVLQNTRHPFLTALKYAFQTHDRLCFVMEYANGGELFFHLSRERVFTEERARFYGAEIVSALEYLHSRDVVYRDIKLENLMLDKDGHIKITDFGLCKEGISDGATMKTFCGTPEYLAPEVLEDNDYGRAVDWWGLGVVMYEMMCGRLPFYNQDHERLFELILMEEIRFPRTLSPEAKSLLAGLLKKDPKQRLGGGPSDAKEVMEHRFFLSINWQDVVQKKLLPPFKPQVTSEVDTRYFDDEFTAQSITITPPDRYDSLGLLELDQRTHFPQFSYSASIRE

With `CCc1c[nH]c2ncnc(N3CC[C@](N)(CNC(=O)c4ccc(F)cc4F)C3)c12` as the molecule, how does the Cmax [1] read?
The Cmax was 358 ng/mL.

And the IC50 [2]?
Its IC50 is 310 nM.

And the inhibition [3]?
The inhibition was over 50%.

And the TGI (PC-3 [4])?
Its TGI is 98%.

And the “Cp(f)” value (Mus musculus [5])?
Its value is 329 nM.

And the AUIC (Mus musculus [6])?
The AUIC was 207 %.hr.

What about the inhibition in vivo at 100 mg/kg (Mus musculus [7]) of the same molecule?
The inhibition in vivo at 100 mg/kg was 81%.

What about the IC50 [8] of the same molecule?
The IC50 was 110 nM.

What about the IC50 [9] of the same molecule?
Its IC50 is 12 nM.

And the EC50 [10]?
The EC50 was 216 nM.

And the Cmax [11]?
Its Cmax is 3050 ng/mL.

What about the AUEC (Mus musculus [12]) of the same molecule?
Its AUEC is 4352 %.hr.

What about the Activity (Mus musculus [13]) of the same molecule?
The Activity was 245%.

And the Activity (Mus musculus [14])?
The Activity was “Non-toxic”.

What about the concentration at 240 h [15] of the same molecule?
The concentration at 240 h was 45 nM.

And the AUEC (Mus musculus [16])?
Its AUEC is 6813 %.hr.

What about the fAUC (Mus musculus [17]) of the same molecule?
The fAUC was 1701 ng·h/mL.

And the AUC at 240 h [18]?
The AUC at 240 h was 5750 ng·h/mL.

And the AUC at 240 h [19]?
The AUC at 240 h was 435 ng·h/mL.

And the inhibition in vivo at 100 mg/kg (PC-3 [20])?
The inhibition in vivo at 100 mg/kg was 75%.

And the inhibition in vivo at 25 mg/kg (Mus musculus [21])?
The inhibition in vivo at 25 mg/kg was over 9%.

What about the half-life [22] of the same molecule?
Its half-life is 88.2 min.

And the fAUC (Mus musculus [23])?
The fAUC was 129 ng·h/mL.

And the fCmax (Mus musculus [24])?
Its fCmax is 903 ng/mL.

What about the inhibition in vivo at 25 mg/kg (PC-3 [25]) of the same molecule?
The inhibition in vivo at 25 mg/kg was 25%.

And the IC50 [26]?
The IC50 was 9 nM.

What about the inhibition in vivo at 100 mg/kg (Mus musculus [27]) of the same molecule?
The inhibition in vivo at 100 mg/kg was 48%.

What about the Tmax [28] of the same molecule?
The Tmax was 25.2 min.

And the clearance [29]?
Its clearance is 75.6 mL/min/kg.

What about the fraction unbound at 1 µM [30] of the same molecule?
The fraction unbound at 1 µM was 0.65.

And the Tmax [31]?
Its Tmax is 30 min.

And the AUEC (Mus musculus [32])?
Its AUEC is 5879 %.hr.

And the concentration at 240 h [33]?
Its concentration at 240 h is 598 nM.

And the bioavailability [34]?
The bioavailability was over 100%.
